Here are results for three compounds from patent publication US6011041A, “Use of anhydrovinblastine” (priority 1996, dated 2000).

Counter-ions that a name gives are not always drawn. Like-named read-outs stand apart in the source and are kept apart here. A value given as a limit tells only on which side of the number the result lay.

For series [1], the system named is healthy male Nb rats. Put plainly: acute (14 day) single dose toxicity in healthy male Nb rats (Table 2). The format is in vivo, rat. The settings on record: single i.p. injection. Here is the method:
(§1) Range-finding acute (14 day), single dose toxicity studies were performed in healthy male Nb rats in order to determine the maximum tolerated dose of vincristine sulfate, navelbine and AHVB when administered as a single, intraperitoneal injection in these rodents (see Table 2). To this end, healthy non-tumor bearing male Nb rats (weight range 333-399 grams) were divided in groups of 3 animals. Each group was used to test one drug at one dosage. The volumes within which the drugs were administered depended on the concentration of the drug solution (in saline) and the weight of the animals, and ranged from 0.1-1.0 ml. Saline was used as a control. The highest dose of each drug which allowed survival of all animals in a group (3 out of 3) was taken as the subacutely toxic dosage for the drug, i.e. 0.7 mg/kg for vincristine, 2.0 mg/kg for navelbine and 3.0 mg/kg for AHVB.
(§2) The health of the animals was assessed by daily weight measurements in addition to behavioral indications of stress. Animals continued to be monitored throughout the complete 14 day study period. Animals were euthanized in the event of signs of severe stress or weight loss in excess of 20%. All animals were necropsied at the end of the study period or at the time of premature euthanasia.

Test in series [2]: as above
The format is in vivo, rat. To be noted: rat, in vivo, ip; male Nb rats, single i.p. injection; read-out: subacutely toxic dosage (highest dose which allowed survival of all animals in a group, 3 out of 3). The method, then:
as §1, §2

Series [3] concerns K562 human erythroleukemia. Put plainly: MTT dose response cytotoxicity, K562 (Table 1). The format is cell-based. The settings on record: read-out: DRUG IC50. The method, then:
(§3) Cytotoxicity experiments on AHVB were performed as direct comparisons with vincristine and navelbine in order to assess its inherent antineoplastic profile against a variety of tumour cell types relative to other relevant vinca alkaloids. The cytotoxicity of AHVB was investigated in vitro against a panel of tumour cell lines of varying lineage in order to determine the specificity of its antitumour activity with respect to cell type. The tumour lines studied were P388 lymphocytic leukemia (a murine lymphocytic leukemia), Noble (Nb) rat U17 lymphoma, MCF7 human breast carcinoma, H460 human non-small cell lung carcinoma, K562 human erythrokeukemia and LS180 human colon carcinoma based on established NCI in vitro new anticancer drug cytotoxicity screening protocols.
(§4) Standard dose response cytotoxicity assays (R. Mosmass, J. Immunol. Meth., 65:55-64, 1983) were utilized to determine the IC50 (drug concentration required to induce 50% inhibition of tumour cell growth) for vincristine, navelbine and AHVB. The indicated cell lines were obtained from either the ATCC or NCI tumor repository and were cultured in tissue culture media by standard techniques well known to those skilled in the art, prior to dilution to a defined cell concentration required for the studies in 96 well plates.
(§5) A wide range of drug concentrations were exposed to tumour cells growing at log phase in 96-well microtitre plates. Cell concentrations depended on the cell line as well as the length of time to be cultured. Typically, P388 cells were plated at a concentration of 30,000, 2,000 and 750 cells per well for studies lasting 1, 3 and 7 days, respectively MCF7 cells were plated at a concentration of 7,000 and 1,500 cells per well for studies lasting 3 and 7 days, respectively. H460 cells were plated at a concentration of 2,500 and 1,000 cells per well for studies lasting 3 and 7 days, respectively. K562 cells were plated at a concentration of 1,500 and 10,000 cells per well for studies lasting 1 and 3 days, respectively. LS180 cells were plated at a concentration of 5,000 and […] cells per well for studies lasting 3 and 7 days, respectively. After plating all cell lines were incubated (CO2 incubator at 37° C., 5% CO2) for 24 hours prior to addition of the cytotoxic agent (See Table 1). Subsequently the plates were incubated for the indicated time period. At specified times, cells were washed and subsequently exposed to the dye inclusion marker MTT (3-(4,5-dimethylthiazol-2-yl)-2,5diphenyl tetrazolium), which accumulated into viable cells. MTT was added to the cells at a final concentration of 50 μg per well. After a 4 hour incubation, the cells were washed free of media and unreacted MTT, prior to addition of DMSO which was required to solubilize the insoluble formazan precipitate that formed in viable cells. After the sample was mixed through repeated pipetting, the colored product was measured using a plate reader operating at 570 nm. The absorbance values obtained for cells cultured in the absence of drug was assumed to represent 100% viability. Experiments were repeated to substantiate any differences noted between […] and other vinca alkaloids.

Series [4] relates to MCF7 human breast carcinoma. Put plainly: MTT dose response cytotoxicity, MCF7 (Table 1). The format is cell-based. The settings on record: read-out: DRUG IC50. Here is the method:
as §3, §4, §5

Series [5] concerns P388 murine leukemia cells. The series is described as follows: MTT dose response cytotoxicity, P388 (Table 1, FIG. 5). The series is classed as cell-based. The settings on record: Mus musculus, read-out: DRUG IC50. The method, then: as §3, §4, §5
A cytotoxicity curve was generated to estimate the IC50 of vincristine, navelbine and AHVB in the murine P388 cell line (see FIG. 5). In this study, P388 cells derived from an ascitic tumor grown in BDF1 were first separated from red cells employing Ficoll-Paque. Isolated while cells were washed twice then placed in serum containing tissue culture media (1×10^5 cells per ml of RPMI 1640 supplemented with L-glutamine, penicillin, streptomycin and 10% fetal bovine serum) and cultured for 2 hours. All non adherent cells were collected and that cell population was defined as P388 cells and used for cytotoxicity assays 24 hours later. Cytotoxicity assays were performed as described in the notes to Table 1. The drug concentrations used are indicated on the X-axis. […]

Setting [6] is: 24 h, K562, exposure time 1 day.
The mark [7] stands for this setting: 72 h, K562, exposure time 3 days.
[8] abbreviates: 72 h, MCF7, exposure time 3 days.
[9] abbreviates: 168 h, MCF7, exposure time 7 days.
The mark [10] stands for this setting: 24 h, P388, exposure time 1 day.
Setting [11] is: 72 h, P388, exposure time 3 days.
Where [12] appears, read: 168 h, P388, exposure time 7 days.

Usually IC50 stands for the point on the concentration scale where inhibition reaches its midpoint. Regarding `CC[C@]1(O)C[C@H]2CN(CCc3c([nH]c4ccccc34)[C@@](C(=O)OC)(c3cc4c(cc3OC)N(C=O)[C@H]3[C@@](O)(C(=O)OC)[C@H](OC(C)=O)[C@]5(CC)C=CCN6CC[C@]43[C@@H]65)C2)C1` [vincristine, Sulfate of 22-oxovincaleukoblastine], the “Mortality (surviving rats/injected rats)” value in series [1] (0.5 mg/kg) and in series [1] (0.7 mg/kg) was 3/3 in each case. In addition, in series [2], the MTD at 336 h is 0.7 mg/kg. In addition, the half-maximal inhibitory concentration (IC50) is above 50 nM in series [3] (setting [6]); 1.5 ± 0.4 nM in series [3] (setting [7]); above 2500 nM in series [4] (setting [8]); 2.6 ± 1.6 nM in series [4] (setting [9]); 11 ± 3.6 nM in series [5] (setting [10]); 1 ± 0.3 nM in series [5] (setting [11]). In addition, the half-maximal inhibitory concentration (IC50) in series [5] (setting [12]) came out at 2 nM.

Consider `CCC1=CC2CN(CCc3c([nH]c4ccccc34)C(C(=O)OC)(c3cc4c(cc3OC)N(C)C3C(O)(C(=O)OC)C(OC(C)=O)C5(CC)C=CCN6CCC43C65)C2)C1` (stereo not shown) [AHVB, 3',4'-anhydrovinblastine], for which the “Mortality (surviving rats/injected rats)” value in series [1] (3.0 mg/kg) was 3/3; in series [1] (4.4 mg/kg), 0/1; in series [1] (10.0 mg/kg) it was 0/3. Further, the MTD at 336 h in series [2] was 3 mg/kg. Besides, the concentration for half-maximal inhibition (IC50) is above 50 nM in series [3] (K562, 24 h); 18.8 ± 8.8 nM in series [3] (K562, 72 h); above 2500 nM in series [4] (MCF7, 72 h); 31.3 ± 12.4 nM in series [4] (MCF7, 168 h); 140 ± 53 nM in series [5] (P388, 24 h); 15 ± 8.7 nM in series [5] (P388, 72 h). Also, the half-maximal inhibitory concentration (IC50) in series [5] (P388, 168 h) stood at 20 nM.

In the case of `CCC1=C[C@@H]2CN(C1)Cc1c([nH]c3ccccc13)[C@@](C(=O)OC)(c1cc3c(cc1OC)N(C)[C@H]1[C@@](O)(C(=O)OC)[C@H](OC(C)=O)[C@]4(CC)C=CCN5CC[C@]31[C@@H]54)C2` [navelbine, 3',4'-didehydro-4'-deoxy-C'-norvincaleukoblastine-di-L-tartrate], the “Mortality (surviving rats/injected rats)” value in series [1] (2.0 mg/kg) was 3/3; in series [1] (5.0 mg/kg), 0/3. Besides, the MTD at 336 h in series [2] was 2 mg/kg. The 50% inhibitory concentration (IC50) in series [3] (setting [6]) is above 50 nM; in series [3] (setting [7]) it was 2.5 ± 2.2 nM; in series [4] (setting [8]), above 2500 nM; in series [4] (setting [9]), 2.6 ± 1.6 nM; in series [5] (setting [10]), 20 ± 10 nM; in series [5] (setting [11]), 0.7 ± 0.3 nM. Further, in series [5] (setting [12]), the concentration for half-maximal inhibition (IC50) was 2.5 nM.
